Patent US20230123334A1, “AMINO LIPID COMPOUND, PREPARATION METHOD THEREFOR, AND APPLICATION THEREOF” (SHENZHEN SHENXIN BIOTECHNOLOGY CO., LTD., priority 2020, published 2023)

Tested on: HEK293 cells
Assay: Preliminary screening as mRNA vectors, EGFP mRNA transfection of HEK293 cells
Type: cell-based
Details: EGFP mRNA 50 ng per well, 96-well plates; percentage of GFP fluorescent cells relative to total number of cells (Hoechst)
Method in brief: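 HEK293 cells in DMEM plus 10% FBS transfected in 96-well format with 50 ng EGFP mRNA per well; Lipofectamine2000 served as positive control. Read-out is the percentage of GFP-fluorescent cells among total cells, counted by Hoechst nuclear stain.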

Compound | Absolute mRNA transfection efficiency in HEK293 cells [%]
CCCCCCCCCCCCCCCCCCNc1nc(NCCCN2CCOCC2)nc(SCCCCCCCCCC)n1 [Compound D8S10N18] | 0.1
CCCCCCCCCCCCCNc1nc(NCCN(CC)CC)nc(SCCCCCCCCCCC)n1 [Compound D7S11N13] | 5.8
CCCCCCCCCCCCCCCCCCNc1nc(NCCN(C)C)nc(SCCCCCCCCCCCCCCCCCC)n1 [Compound D1S18N18] | 0.0
CCCCCCNc1nc(NCCCN2CCN(C)CC2)nc(SCCCCCC)n1 [Compound D9S6N6] | 1.5
CCCCCCCCCCCCN(CCCCCCCCCCCC)c1nc(NCCN2CCCCC2)nc(SCCCCCCCC)n1 [D4S8^2N12] | 1.1
CCCCCCCCCCCCNc1nc(NCC2CCN(C)CC2)nc(SCCCCCC)n1 [Compound D10S6N12] | 9.6
CCCCCCCCCCCCCCCCCCSc1nc(NCCCCCCC)nc(NCCN(CC)CC)n1 [Compound D7S18N7] | 6.5
CCCCCCCCCCCCNc1nc(NCCN2CCOCC2)nc(SCCCCCCCCCCC)n1 [Compound D2S11N12] | 3.1
CCCCCCCCCCCSc1nc(NCCCCCC)nc(NCCCN2CCN(C)CC2)n1 [Compound D9S11N6] | 12.2
CCCCCCCNc1nc(NCCN2CCCCC2)nc(SCCCCCCC)n1 [Compound D4S7N7] | 3.4
CCCCCCCCCCCCCCSc1nc(NCCCCCC)nc(NCCCN2CCOCC2)n1 [Compound D8S14N6] | 9.2
CCCCCCCCCCCCSc1nc(NCCCCCCC)nc(NCCN2CCCC2)n1 [Compound D3S12N7] | 9.2
CCCCCCCCCCCCCCCCCCNc1nc(NCCCN2CCOCC2)nc(SCCCCCCCCCCCCCC)n1 [Compound D8S14N18] | 0.3
CCCCCCCCNc1nc(NCCN2CCOCC2)nc(SCCCCCC)n1 [Compound D2S6N8] | 0.0
CCCCCCCCCCCCNc1nc(NCCN2CCCC2)nc(SCCCCCC)n1 [Compound D3S6N12] | 4.1
CCCCCCCCCCCCCCCCNc1nc(NCCCN(C)C)nc(SCCCCCCC)n1 [Compound D6S7N16] | 44.8
CCCCCCCCCCCSc1nc(NCCCCCC)nc(NCC2CCN(C)CC2)n1 [Compound D10S11N6] | 6.8
CCCCCCCCCCCCCCCCNc1nc(NCCN2CCN(C)CC2)nc(SCCCCCC)n1 [Compound D5S6N16] | 35.4
CCCCCCCCCCCCCNc1nc(NCCCN2CCN(C)CC2)nc(SCCCCCCCCCCC)n1 [Compound D9S11N13] | 9.4
CCCCCCCCCCCCCCCSc1nc(NCCCCCCCCC)nc(NCCN(C)C)n1 [Compound D1S15N9] | 96.3
CCCCCCCCCSc1nc(NCCCCCCCC)nc(NCCCN(C)C)n1 [Compound D6S9N8] | 7.5
CCCCCCCCCSc1nc(NCCN2CCCC2)nc(SCCCCCCCC)n1 [Compound D3S8S9] | 11.6

Compound | Absolute mRNA transfection efficiency in HEK293 cells [%]
CCCCCCCCCCCCCCSc1nc(NCCCCCCCCCCCC)nc(NCCN2CCCC2)n1 [Compound D3S14N12] | 13.5
CCCCCCCCCCCCCCCSc1nc(NCCCCCCCC)nc(NCCCN2CCN(C)CC2)n1 [Compound D9S15N8] | 10.8
CCCCCCCCCCCNc1nc(NCC2CCN(C)CC2)nc(SCCCCCCCC)n1 [Compound D10S8N11] | 81.5
CCCCCCCCCCCCCCCCNc1nc(NCCN2CCOCC2)nc(SCCCCCC)n1 [Compound D2S6N16] | 2.2
CCCCCCCCCCCCCCCCNc1nc(NCCCN(C)C)nc(SCCCCCCCC)n1 [Compound D6S8N16] | 67.0
CCCCCCCCCCCCCCCCCCSc1nc(NCCN2CCN(C)CC2)nc(SCCCCCCC)n1 [Compound D5S7S18] | 3.8
CCCCCCCCCCCCCCCCNc1nc(NCC2CCN(C)CC2)nc(SCCCCCCCCCCC)n1 [Compound D10S11N16] | 10.4
CCCCCCCCCCCSc1nc(NCCN2CCCC2)nc(SCCCCCC)n1 [Compound D3S6S11] | 0.7
CCCCCCCCCCCCCCCCCCNc1nc(NCCN2CCOCC2)nc(SCCCCCCCCCCC)n1 [Compound D2S11N18] | 0.0
CCCCCCCCCCCCCCCCSc1nc(NCCCN2CCOCC2)nc(SCCCCCC)n1 [Compound D8S6S16] | 43.1
CCCCCCCCCCCCCCCCCCNc1nc(NCCCN2CCN(C)CC2)nc(SCCCCCCCCCCC)n1 [Compound D9S11N18] | 14.9
CCCCCCCCCCCCCCCSc1nc(NCCCCCCCCCCCCC)nc(NCCCN2CCN(C)CC2)n1 [Compound D9S15N13] | 2.0
CCCCCCCCCCCSc1nc(NCCCCCCC)nc(NCCN2CCOCC2)n1 [Compound D2S11N7] | 8.5
CCCCCCCCCCCCCCCCCCNc1nc(NCCN2CCN(C)CC2)nc(SCCCCCCCCC)n1 [Compound D5S9N18] | 28.6
CCCCCCCCCCCCCCCCCCSc1nc(NCCCCCCCCCCCCC)nc(NCC2CCN(C)CC2)n1 [Compound D10S18N13] | 2.9
CCCCCCCCCCCCCNc1nc(NCCN2CCCCC2)nc(SCCCCCCCCCCCC)n1 [Compound D4S12N13] | 1.3
CCCCCCCCCCCSc1nc(NCCCCCCCC)nc(NCCN2CCOCC2)n1 [Compound D2S11N8] | 2.4
CCCCCCCCCCCCCCCNc1nc(NCCN2CCN(C)CC2)nc(SCCCCCCCCCCCCCC)n1 [Compound D5S14N15] | 0.3
CCCCCCCCCCCCCCCCCCSc1nc(NCCCCCCCCCCCC)nc(NCCCN2CCOCC2)n1 [Compound D8S18N12] | 0.4
CCCCCCCCCCCCCCCCNc1nc(NCCN2CCCCC2)nc(SCCCCCCCCCCCCCC)n1 [Compound D4S14N16] | 1.4
CCCCCCCCCCCCCCCCCCSc1nc(NCC2CCN(C)CC2)nc(N(CCCCCCCCCCCC)CCCCCCCCCCCC)n1 [D10S18^2N12] | 0.0
CCCCCCCCCCCCCNc1nc(NCCN2CCN(C)CC2)nc(SCCCCCCCCCCCC)n1 [Compound D5S12N13] | 0.4

Compound | Absolute mRNA transfection efficiency in HEK293 cells [%]
CCCCCCCCCCCCCCSc1nc(NCCCCCCCC)nc(NCCN2CCN(C)CC2)n1 [Compound D5S14N8] | 65.6
CCCCCCCCCCCCSc1nc(NCCCCCC)nc(NCCCN2CCN(C)CC2)n1 [Compound D9S12N6] | 0.2
CCCCCCCCCCCCSc1nc(NCCN2CCN(C)CC2)nc(SCCCCCCCC)n1 [Compound D5S8S12] | 47.4
CCCCCCCCCCCCCCCCCCNc1nc(NCCN2CCOCC2)nc(SCCCCCCCCCCCC)n1 [Compound D2S12N18] | 0.8
CCCCCCCCCCCCSc1nc(NCCCCCC)nc(NCCCN(C)C)n1 [Compound D6S12N6] | 1.1
CCCCCCCCCCCCCCCCCCNc1nc(NCCN2CCCC2)nc(SCCCCCCCCCC)n1 [Compound D3S10N18] | 59.6
CCCCCCCCCCCCNc1nc(NCCN2CCCCC2)nc(SCCCCCCC)n1 [Compound D4S7N12] | 0.6
CCCCCCCCSc1nc(NCCN2CCCCC2)nc(SCCCCCCC)n1 [Compound D4S7S8] | 5.9
CCCCCCCCCCCSc1nc(NCCCCCC)nc(NCCN2CCCC2)n1 [Compound D3S11N6] | 18.1
CCCCCCCCCCSc1nc(NCCCN(C)C)nc(SCCCCCCC)n1 [Compound D6S7S10] | 18.1
CCCCCCCCCCCCCCCCSc1nc(NCCCN2CCN(C)CC2)nc(SCCCCCC)n1 [Compound D9S6S16] | 38.2
CCCCCCCCCCSc1nc(NCC2CCN(C)CC2)nc(SCCCCCC)n1 [Compound D10S6S10] | 22.4
CCCCCCCCCCCNc1nc(NCCN2CCCC2)nc(SCCCCCCCCCCC)n1 [Compound D3S11N11] | 33.5
CCCCCCCCCCCCCCCNc1nc(NCC2CCN(C)CC2)nc(SCCCCCCCCCCCCCCC)n1 [Compound D10S15N15] | 2.4
CCCCCCCCCCCCCCCCCCNc1nc(NCCN2CCN(C)CC2)nc(SCCCCCCCCCCCCCCC)n1 [Compound D5S15N18] | 1.7
CCCCCCCCCSc1nc(NCCCN2CCN(C)CC2)nc(SCCCCCCCC)n1 [Compound D9S8S9] | 85.2
CCCCCCCCCCCCSc1nc(NCCCCCCC)nc(NCCCN(C)C)n1 [Compound D6S12N7] | 13.0
CCCCCCCCCCCSc1nc(NCCN(C)C)nc(SCCCCCCCC)n1 [Compound D1S8S11] | 3.0
CCCCCCCCCCCCCCCCCCSc1nc(NCCCCCC)nc(NCCCN2CCN(C)CC2)n1 [Compound D9S18N6] | 55.4
CCCCCCCCCCCCCCCCCCNc1nc(NCCN(C)C)nc(SCCCCCCCCCCCC)n1 [Compound D1S12N18] | 0.0
CCCCCCCCCCCCCCSc1nc(NCCCCCCCCC)nc(NCCN2CCCC2)n1 [Compound D3S14N9] | 51.6
CCCCCCCCCCCCCCCNc1nc(NCCN(CC)CC)nc(SCCCCCCCCCC)n1 [Compound D7S10N15] | 2.0
